Results on 83 compounds are retold here after a melting point compilation (Tetko et al.; mined from patent text by program, amines drawn as free bases though some values may be those of a salt).

For `COCCOc1cc(NC(=O)OC(C)(C)C)c([N+](=O)[O-])cc1C#Cc1ccccc1`, the melting point lay within 118 to 119 °C.

`O=C1c2ccccc2C(=O)N1CCOc1ccncc1`: the melting point lay within 157 to 158 °C.

Take `CC(C)n1nc(-c2c(-c3ccccc3)nn3ccc(OCC(=O)N4CCN(C(=O)N(C)C)CC4)cc23)ccc1=O`: the melting point fell in the range of 151 to 152 °C.

In the case of `ClC(c1ccccc1)c1ccc(C2CCCCC2)cc1` (stereo not drawn), the melting point turned out to be 75 °C.

Turning to `Cc1cc(SCc2sc(-c3ccc(C(F)(F)F)cc3)nc2C)cc(C)c1OCC(=O)O`, the melting point lay in the range of 157 to 158 °C.

Consider `COC(=O)C(C)N(C(=O)CS)c1c(C)cccc1C` (stereo not drawn), for which the melting point was 62.5 to 63 °C.

Take `CC1C[C@@H]2[C@H](O1)[C@@H](NC(=O)OC(C)(C)C)CN2Cc1ccccc1` (relative stereo): the melting point lay within 56 to 60 °C.

The compound `CCCn1c(COCC)nc2c(N)nc3ccc(OC4CCN(S(C)(=O)=O)CC4)cc3c21` gave a melting point of 240 to 244 °C.

As to `CCN(CC)C(=O)c1nc[nH]n1`, the melting point was 173 to 174 °C.

For the compound `OC(CS)(Cn1cncn1)c1ccc(F)cc1F` (stereo not drawn), the melting point is 112 to 113 °C.

Consider `Nc1nc2c(Cl)cc(C(F)(F)F)cc2[nH]c1=O`, for which the melting point lay in the range of 270 to 272 °C.

Compound `CCCCOP(=O)(OCCCC)C(Sc1cc(F)ccc1O)=P(OCCCC)(OCCCC)OCCCC` displayed a melting point of 165 to 166 °C.

Compound `CC(CO)Oc1cc(Oc2ccc(S(C)(=O)=O)cc2)cc2cc(C3=NCC(CCO)S3)[nH]c12` (stereo not drawn) registered a melting point of 165 to 169 °C.

Turning to `COC(=O)c1c([N+](=O)[O-])cccc1S(=O)(=O)N(CCO)CCO`, the melting point is 92 to 93 °C.

With `COc1ccc(-n2nc(C(=O)CCCO[N+](=O)[O-])cc2-c2ccc(S(C)(=O)=O)cc2)cc1`, the melting point is 132 to 134 °C.

On to `COc1cc2c(c3c1OC(C)(C)C3)C(c1cccc(C(=O)NC3CCNC3=O)c1)=NC(C)(C)C2` (stereo not drawn), for which the melting point is 191 to 193 °C.

As to `O=C(O)CCc1c(C(=O)O)[nH]c2cc(Br)ccc12`, the melting point was in the range of 234 to 235 °C.

`CCCc1nc(C(=O)C(C)(C)C)c(C#N)n1Cc1ccc(-c2ccccc2-c2nnnn2C(c2ccccc2)(c2ccccc2)c2ccccc2)cc1`: the melting point lay within 107 to 110 °C.

`COCc1cn(Cc2ccccc2)c(=O)[nH]c1=O` yielded a melting point of 134 to 136 °C.

Compound `Cc1n[nH]c(CC#N)c1Oc1cc(Cl)cc(Cl)c1` showed a melting point of 150 to 152 °C.

`Clc1ccc([C@@]2(Cn3ccnc3)OC[C@H](COc3ccc4c(c3)CCN(CCCc3ccc(-c5ccccc5)cc3)C4)O2)c(Cl)c1` (racemic): the melting point is 125 to 127 °C.

`O=C(c1ccccc1Cl)c1ccccc1C#CCN1C(=O)c2ccccc2C1=O` returned a melting point of 149 to 150 °C.

`CCN(CC)C(=O)c1cc(-c2ccccc2)ccc1-c1ccccc1` gave a melting point of 128 to 130 °C.

`CCCOc1n[nH]c(=O)n1C` displayed a melting point of 74 °C.

As to `CC(C)c1ccc2nc(C(F)(F)F)c(C(=O)O)c(O)c2c1`, the melting point is 206 °C.

Take `O=C(C[C@@H](NC(=O)C(F)(F)F)C(=O)O)c1ccc(F)c(F)c1`: the melting point is 136 to 137 °C.

`C=CCN1CCC23CC(=O)CCC2(O)C1Cc1cccc(OC)c13` (stereo not drawn) gave a melting point of 166 to 167 °C.

In turn, `O=C1CCc2c(ccc3ccc(O)cc23)O1` returned a melting point of 194 to 202 °C.

The compound `CCNC(=O)Nc1cnc2ccc(-c3ccc(N)c(OC)c3)nc2n1` returned a melting point above 310 °C.

Turning to `COc1cc(C(=O)NS(=O)(=O)c2ccccc2C)ccc1Cc1c[nH]c2ccc(NC(=O)CC3CCCC3)cc12`, the melting point fell in the range of 248 to 250 °C.

`CC(=O)OC1CSC(Oc2cccnc2-c2ccncc2)C(OC(C)=O)C1OC(C)=O` (stereo not drawn) displayed a melting point of 161 °C.

Regarding `O=C(c1ccc2[nH]ccc2c1)N1CCN(CCc2ccc([N+](=O)[O-])cc2)CC1`, the melting point fell in the range of 204 to 206 °C.

`COc1ccc2nc(N3CCNCC3)cc(C(F)(F)F)c2c1` yielded a melting point of 130 °C.

As for `CC(C)(C)[Si](Oc1ccc(Br)cc1)(c1ccccc1)c1ccccc1`, the melting point amounted to 56 °C.

In turn, `COC(=O)C1CCCn2c(=O)[nH]c(=O)n21` (stereo not drawn) registered a melting point of 215 to 216 °C.

As for `CC(C)n1nc(-c2ncc(N)nc2-c2ccccc2Br)ccc1=O`, the melting point was 189 to 191 °C.

On to `CSc1ccc(CC(=O)NC(NC(=NC#N)Nc2ccccc2C)C(C)(C)C)cc1` (stereo not drawn), for which the melting point is 151 to 152 °C.

In turn, `COc1ccc(-c2c([N+](=O)[O-])c3ccc(OC)cc3c(=O)n2CC#N)cc1` gave a melting point of 194 to 196 °C.

Take `CC(C)(O)C(=O)Nc1ccc2ccccc2c1`: the melting point lay within 155 to 157 °C.

Take `CC(=O)SCC(C)C(=O)N(CC(=O)O)C1CC1` (stereo not drawn): the melting point was 86 to 88 °C.

In turn, `CNC(=O)CC1CN=C(c2cc3cc(Oc4ccc(S(C)(=O)=O)cn4)cc(OC(COC)COC)c3[nH]2)S1` (stereo not drawn) displayed a melting point of 123 to 125 °C.

As for `COC(=O)CCc1cc(C(C)(C)C)c2oc(-c3ccc(-c4nc5cc(CCC(=O)OC)cc(C(C)(C)C)c5o4)s3)nc2c1`, the melting point fell in the range of 144 to 145 °C.

`Cc1cc(OCc2ccccc2)cc(OCc2cccc(OCc3ccc4ccccc4n3)c2)c1C(=O)O`: the melting point was 146 to 149 °C.

`COc1ccc(C(=O)Cc2cccc(C(F)(F)F)c2)cc1` displayed a melting point of 94 to 95 °C.

On to `COc1ccc2[nH]cc(-c3cc4c(OC)ncnc4n3S(=O)(=O)c3ccc(C)cc3)c2c1`, for which the melting point is 131 °C.

Take `CCc1nc2c(cnn2CC)c(NC2CCOCC2)c1CNC(=O)c1cccc(C(=O)NCc2ccc(OC)c(-c3cccc(CN4CCN(C)CC4)c3)c2)c1`: the melting point was in the range of 117 to 119 °C.

Compound `COc1cc(N)c(Cl)cc1C(=O)NC1CCN(CCCOc2ccc(F)cc2)CC1(F)F` (stereo not drawn) displayed a melting point of 126 °C.

`CCCCC(=O)c1cc(C(=O)O)c2cc(Cc3ccc(F)cc3)cnc2c1O` came in with a melting point of 227 to 229 °C.

For `COc1ccc(C=C2SC(=O)NC2=O)cc1C(=O)NCc1ccc(C(F)(F)F)cc1`, the melting point fell in the range of 210 to 212 °C.

The compound `CC(C)C1(C)N=C(c2nc3occ([N+](=O)[O-])c3cc2C(=O)O)NC1=O` (stereo not drawn) displayed a melting point of 220 to 237 °C.

`CSc1ccc(-n2c(-c3ccccn3)nc(SC)c(C#N)c2=O)cc1` registered a melting point of 158 to 161 °C.

Compound `CCc1cccc(CC)c1NC(=NCc1cccc(CCl)c1)Nc1c(CC)cccc1CC` showed a melting point of 83.5 to 86.5 °C.

Take `CCOc1nccc(CC(=O)O)c1NC(=O)OC(C)(C)C`: the melting point lay in the range of 94 to 95.5 °C.

`CCCCCc1cc(O)c(C2=C(CO)CCC(C)C2)c(O)c1` (stereo not drawn): the melting point was in the range of 109 to 111 °C.

In turn, `CC1(C)CCC(C)(C)c2cc(O)ccc21` came in with a melting point of 142 °C.

`O=C(O)Cc1ccc(OCc2ccccc2)c(Cl)c1` came in with a melting point of 121 to 123 °C.

The compound `CS(=O)(=O)Nc1cc2occc(=O)c2cc1Oc1ccccc1N` showed a melting point of 238 to 240 °C.

Turning to `O=C(NC12CC3CC(CC(C3)C1)C2)n1cc(F)c(=O)[nH]c1=O`, the melting point was above 260 °C.

Compound `C[C@H](OC(=O)c1ccccc1)[C@@H](O)[C@@H](CO)OCc1ccccc1Cl` returned a melting point of 80 to 83 °C.

In turn, `CCOC(=O)c1cn(-c2cc(C)on2)cn1` yielded a melting point of 142 to 143 °C.

Consider `O=C(Cc1ccc2ccccc2c1)N[C@H]1C[C@H](C(=O)O)Nc2cc(Cl)cc(Cl)c21` (relative stereo), for which the melting point lay in the range of 217 to 219 °C.

Turning to `Cc1ccc(C(=O)c2ccc(Cc3c(Cl)cc([N+](=O)[O-])cc3Cl)cc2)cn1`, the melting point lay in the range of 121 to 123 °C.

Take `COc1ccc(S(=O)(=O)N2C(=O)[C@@](c3ccccc3OC)(N3C[C@H](OC(C)=O)C[C@H]3C(=O)N(C)C)c3cc(Cl)ccc32)c(OC)c1`: the melting point was 194 to 195 °C.

For `CCC(C)(C)c1ccc(OCCCCNC(=O)CS(=O)(=O)c2ccc([N+](=O)[O-])cc2)c(C(C)(C)CC)c1`, the melting point is 36 to 37 °C.

As for `CC(=O)OCCOCc1nc2nccnc2c(=O)[nH]1`, the melting point fell in the range of 157 to 159 °C.

The compound `CCCOc1ccc(OC)cc1-c1ncc(C(=O)OCC)c(=O)[nH]1` had a melting point of 124 to 126 °C.

Take `COc1cc(-n2c(C#N)c3n(c2=O)CCCC3)c(F)cc1Cl`: the melting point lay in the range of 173 to 175 °C.

Regarding `CCOC(=O)N1C=CC(c2ccc(F)cc2)C(C(=O)OC)=C1` (stereo not drawn), the melting point was 83 to 85 °C.

As for `O=C1CCC(N2Cc3c(OCc4ccc(CN5CCn6nc(C(F)(F)F)nc6C5)cc4)cccc3C2=O)C(=O)N1` (stereo not drawn), the melting point was 139 to 142 °C.

The compound `CSc1ccc(-c2cc(-c3nc4ccccc4c(=O)n3-c3ccc(C)cc3)sc2N2CCOCC2)cc1` displayed a melting point of 238 to 240 °C.

The compound `O=C1CCc2ccc(OCCCCN3CCCN(c4cccc(Cl)c4Cl)CC3)nc2N1` came in with a melting point of 110 to 111 °C.

As to `CCCCOC(=O)COc1cc(F)c(-c2nn(C)c(C(F)(F)F)c2Cl)cc1[N+](=O)[O-]`, the melting point is 65 °C.

`CCCc1c(OCCCSc2c(F)cccc2C(=O)CCC(=O)O)ccc(C(C)=O)c1O` came in with a melting point of 115 to 116 °C.

On to `CC(C)c1cccc(C(C)C)c1NC(=O)N(Cc1ccc(N(C)C)cc1)c1ccc(F)cc1`, for which the melting point fell in the range of 124 to 125 °C.

Take `N#CNC(=NC1CCN(Cc2ccccc2)CC1)N1Cc2ccccc2C1`: the melting point lay in the range of 191 to 192 °C.

`CCn1cc(-c2ccc(O)cc2)nc1SC` yielded a melting point of 218 °C.

The compound `COc1cccc(Cl)c1CBr` registered a melting point of 44 to 47 °C.

`CC(Cc1sc(Br)cc1Cl)NC(=O)c1cn(C)nc1C(F)F` (stereo not drawn): the melting point was 157 to 158 °C.

`COc1cc(CNC(=O)c2ccc3n2Cc2ccccc2N(C(=O)c2ccc(-c4ccccc4C)c(C)c2)C3)cc(OC)c1` registered a melting point of 183 to 184 °C.

For `O=C(/C=C/c1ccc(Br)cc1)/C=C/c1ccc(Br)cc1`, the melting point was in the range of 211 to 213 °C.

Turning to `CC(=O)c1ccc(SCC(=O)O)cc1`, the melting point was 151 to 153 °C.

In turn, `COC12CC(CO)CN(C)C1CC1CNc3cccc2c31` (stereo not drawn) showed a melting point of 134 to 138 °C.

The compound `O=C(O)c1cc(-c2ccc3c(c2)CCO3)nn(Cc2ccc(Cl)cc2)c1=O` had a melting point of 200 to 210 °C.

By melting point is commonly meant the temperature, or range, at which the solid turns liquid.
